Measured values from patent US20200171005A9, “Heterobifunctional Pan-Selectin Antagonists Having a Triazole Linker” (GlycoMimetics, Inc., priority 2015, published 2020).

How the values were obtained:
[1] = biological target: T1, E-selectin (E-selectinLEC2 construct) (Homo sapiens, UniProt P16581); experiment: Microscale Thermophoresis (MST) affinity assay for E-selectin; details: labeled E-selectinLEC2, HEPES buffer pH 7.4, 1 mM CaCl2, 25° C.; read-out: Binding Affinity (KD) to E-Selectin Determined by MST
T1 construct: a construct consisting of the lectin domain, the EGF like domain, and the first two short consensus repeats (E-selectinLEC2)
T1 sequence (P16581 22-301 limits assumed): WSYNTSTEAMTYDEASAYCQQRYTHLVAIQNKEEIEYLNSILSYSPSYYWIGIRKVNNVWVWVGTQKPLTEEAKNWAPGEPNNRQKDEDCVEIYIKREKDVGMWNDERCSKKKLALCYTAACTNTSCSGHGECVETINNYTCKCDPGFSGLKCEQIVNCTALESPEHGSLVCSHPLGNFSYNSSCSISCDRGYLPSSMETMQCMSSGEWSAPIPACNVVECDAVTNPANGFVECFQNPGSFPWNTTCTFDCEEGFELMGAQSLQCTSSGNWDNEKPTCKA
Experimental: For E-selectin, a construct consisting of the lectin domain, the EGF like domain, and the first two short consensus repeats (E-selectinLEC2) was labeled using the amine reactive protein labeling kit BLUE-NHS from NanoTemper Technologies GmbH (Munich, Germany).
The Microscale Thermophoresis (MST) experiments were carried out in a HEPES buffer adjusted to pH 7.4 containing 150 mM NaCl, 1 mM CaCl2 and 0.05% Tween 20 at a temperature of 25° C. with 50% LED power, 50% laser power, laser on time of 30 seconds, and laser off time of 5 seconds with standard treated capillaries. A fixed concentration of the labeled E-selectinLEC2 protein was incubated for 20 minutes with a 15-datapoint […] 1:1 dilution of ligand starting about 30 times above the expected KD. The observed data points were fitted using the single-site binding function of Alan Cooper, Tutorial Chemistry Texts, Vol 16: Biophysical Chemistry; Royal Society of Chemistry: Cambridge, 2004.

[2] = biological target: T2, P-selectin (P-selectin/IgG) (Homo sapiens, UniProt P16109); experiment: Cell-free P-selectin ligand competitive binding assay (sLe^a-PAA); details: P-selectin/IgG coated plate, sLe^a-PAA streptavidin-POD complex, 25° C., 2 hours; read-out: IC50, Binding Affinity to P-Selectin Determined by Competitive Binding Assay
T2 sequence (P16109 42-771): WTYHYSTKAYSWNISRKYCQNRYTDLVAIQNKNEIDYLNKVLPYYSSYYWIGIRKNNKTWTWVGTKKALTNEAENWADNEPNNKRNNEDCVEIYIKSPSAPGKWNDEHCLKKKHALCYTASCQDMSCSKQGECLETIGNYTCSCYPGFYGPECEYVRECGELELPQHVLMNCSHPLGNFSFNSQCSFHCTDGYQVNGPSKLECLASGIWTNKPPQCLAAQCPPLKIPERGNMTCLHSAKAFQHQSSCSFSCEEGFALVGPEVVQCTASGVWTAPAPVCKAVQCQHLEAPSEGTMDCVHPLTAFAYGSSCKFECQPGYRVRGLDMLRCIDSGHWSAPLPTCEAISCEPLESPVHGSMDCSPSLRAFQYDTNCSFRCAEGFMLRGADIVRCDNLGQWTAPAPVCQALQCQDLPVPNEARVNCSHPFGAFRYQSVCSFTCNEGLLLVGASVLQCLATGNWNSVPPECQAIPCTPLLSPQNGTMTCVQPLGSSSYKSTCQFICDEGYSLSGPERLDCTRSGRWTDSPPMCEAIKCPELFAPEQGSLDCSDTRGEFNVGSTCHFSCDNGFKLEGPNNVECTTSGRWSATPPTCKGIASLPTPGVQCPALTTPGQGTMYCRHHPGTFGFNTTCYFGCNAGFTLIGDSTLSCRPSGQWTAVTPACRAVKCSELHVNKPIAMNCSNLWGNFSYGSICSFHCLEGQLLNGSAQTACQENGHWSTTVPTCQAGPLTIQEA
Experimental: The cell-free P-selectin ligand binding assay was adapted from Weitz-Schmidt et al (G. Weitz-Schmidt, D. Stokmaier, G. Scheel, N. E. Nifant'ev, A. B. Tuzikov, N. V. Bovin, Anal Biochem 1996, 238, 184-190). A MaxiSorp 96-well flat bottom microtiter plate purchased from Nalge Nunc International (Penfield, N.Y., USA) was coated with P-selectin/IgG by incubation with 100 μL/well of the purified protein at a concentration of 3 μg/ml in 10 mM HEPES-NaOH pH 7.4, 150 mM NaCl, 1 mM CaCl2 (HAB-Ca^+). After an overnight incubation at 4° C., the plate was washed three times with HAB-Ca^+ followed by a 2 hour incubation with 200 μL/well of a solution of 3% BSA in HAB-Ca^+ at room temperature to block nonspecific binding. During this incubation, inhibitory test compounds, diluted in HAB-Ca^+, were titrated by a twofold serial and mixed with an equal volume of 0.2 μg/ml of a preformed complex of a biotinylated sialyl Lewis' polyacrylamide polymer (sLe^a-PAA) purchased form GlycoTech Inc. (Gaithsburg, Md., USA) and horseradish peroxidase-labeled streptavidin (streptavidin-POD) purchased from Roche (Rotkreuz, Switzerland). After blocking, the microtiter plate was washed three times with HAB-Ca^+ and 100 μL/well of the inhibitor dilution series premixed with sLe^a-PAA streptavidin-POD complex was transferred to the different wells of the plate. The binding reaction was allowed to proceed at 25° C. After 2 hours, the plate was washed twice with HAB-Ca^+, and 100 μL/well of ABTS (2,2′-azino-bis[3-ethylbenzthiazoline-6-sulfonic acid]) substrate reagent purchased from Invitrogen (Paisley, UK) was added to each well. Adding 100 μL/well of 2% oxalic acid stopped the colorimetric reaction was after 5 minutes. The optical density was determined at […] (SpectraMax). The concentration of antagonist required to inhibit binding by 50% was determined and is reported as the IC50 value.

Row | Kd [1] [µM] | IC50 [2] [µM] | SMILES
1 | 1.5 | 94 | CCC1CC(C(=O)NCCCc2cn(CCC(=O)Nc3cc(S(=O)(=O)O)cc4cc(S(=O)(=O)O)cc(S(=O)(=O)O)c34)nn2)CC(OC2OC(CO)C(O)C(OC(CC3CCCCC3)C(=O)O)C2OC(=O)c2ccccc2)C1OC1OC(C)C(O)C(O)C1O (centres unmarked) [Compound 15a]
2 | 0.97 | 82 | CCC1CC(C(=O)NCCCc2cn(CCCC(=O)Nc3cc(S(=O)(=O)O)cc4cc(S(=O)(=O)O)cc(S(=O)(=O)O)c34)nn2)CC(OC2OC(CO)C(O)C(OC(CC3CCCCC3)C(=O)O)C2OC(=O)c2ccccc2)C1OC1OC(C)C(O)C(O)C1O (centres unmarked) [Compound 15b]
3 | 1.2 | 210 | CCC1CC(C(=O)NCCCc2cn(CCCCC(=O)Nc3cc(S(=O)(=O)O)cc4cc(S(=O)(=O)O)cc(S(=O)(=O)O)c34)nn2)CC(OC2OC(CO)C(O)C(OC(CC3CCCCC3)C(=O)O)C2OC(=O)c2ccccc2)C1OC1OC(C)C(O)C(O)C1O (centres unmarked) [Compound 15c]
4 | 3 | 185 | CC1CC(C(=O)NCCCc2cn(CCC(=O)Nc3cc(S(=O)(=O)O)cc4cc(S(=O)(=O)O)cc(S(=O)(=O)O)c34)nn2)CC(OC2OC(CO)C(O)C(OC(CC3CCCCC3)C(=O)O)C2OC(=O)c2ccccc2)C1OC1OC(C)C(O)C(O)C1O (centres unmarked) [Compound 17]
